Measurements taken from ChEMBL document CHEMBL1149494, “Synthesis and structure-activity relationships of retro bis-aminopyrrolidine urea (rAPU) derived small-molecule antagonists of the melanin-concentrating hormone receptor-1 (MCH-R1). Part 2” (Bioorg Med Chem Lett, 2006).

What was measured:
Type in all cases: ADME, organism-based
Rattus norvegicus [1] = organism: Rattus norvegicus; experiment: Drug level in rat plasma; conditions: in vivo
Rattus norvegicus [2] = organism: Rattus norvegicus; experiment: Drug level in rat brain; conditions: in vivo
[3] = Ratio of drug level in rat brain against plasma; conditions: brain and plasma, read-out: BPR

| Drug uptake (Rattus norvegicus [1]) | Drug uptake (Rattus norvegicus [2]) | Kp [3] | SMILES |
| --- | --- | --- | --- |
| 30.5 ng/g | 17.3 ng/g | 0.6 | CCc1ccc(-c2ccc(C(=O)N(C)[C@H]3CCN(C(=O)N4CC[C@@H](NC5CCOCC5)C4)C3)s2)cc1 |
| 6.2 ng/g | 38.3 ng/g | 6.5 | CCc1ccc(-c2ccc(C(=O)N(C)[C@H]3CCN(C(=O)N4CC[C@@H](N5CCCCC5)C4)C3)cc2)cc1 |
| 6.7 ng/g | 21.8 ng/g | 3.4 | CCc1ccc(-c2ccc(C(=O)N(C)[C@H]3CCN(C(=O)N4CC[C@@H](N(C)C5CCOCC5)C4)C3)s2)cc1 |
| 14.5 ng/g | 5.1 ng/g | 0.4 | CCc1ccc(-c2ccc(C(=O)N(C)[C@H]3CCN(C(=O)N4CC[C@@H](NC5CCOCC5)C4)C3)cc2)cc1 |
